Reference: the NIST ThermoML archive (doi:10.1016/j.jct.2016.07.051)

Assay: mn = molality of the nth substance listed, in mol/kg
Conditions: 100 kPa, Liquid; for speed of sound: Frequency=3 MHz, Sing-around technique in a fixed-path interferometer; for mass density: Vibrating tube method

O=C[C@H](O)[C@@H](O)[C@H](O)[C@H](O)CO [D-glucose] + O
Conditions	mass density [kg/m3]	speed of sound [m/s]
293.15 K, m1 = 0.05008	1001.67	–
293.15 K, m1 = 0.0698	1003.02	1487
293.15 K, m1 = 0.09118	1004.47	1488.3
293.15 K, m1 = 0.1108	1005.8	1489.5
293.15 K, m1 = 0.1312	–	1490.8
298.15 K, m1 = 0.05008	1000.44	–
298.15 K, m1 = 0.0698	1001.76	1501.4
298.15 K, m1 = 0.09118	1003.17	1502.7
298.15 K, m1 = 0.1108	1004.47	1504
298.15 K, m1 = 0.1312	1005.8	1505.3
303.15 K, m1 = 0.05008	999.038	1512.2
303.15 K, m1 = 0.0698	1000.35	1513.4
303.15 K, m1 = 0.09118	1001.76	1514.7
303.15 K, m1 = 0.1108	1003.05	1515.9
303.15 K, m1 = 0.1312	1004.38	1517.2
303.15 K, m1 = 0.1499	1005.58	1518.3
308.15 K, m1 = 0.05008	997.396	1522.8
308.15 K, m1 = 0.0698	998.701	1524
308.15 K, m1 = 0.09118	1000.11	1525.4
308.15 K, m1 = 0.1108	1001.39	1526.6
308.15 K, m1 = 0.1312	1002.71	–
308.15 K, m1 = 0.1499	1003.91	1529
313.15 K, m1 = 0.05008	995.571	1531.6
313.15 K, m1 = 0.0698	996.873	1532.8
313.15 K, m1 = 0.09118	998.274	1534
313.15 K, m1 = 0.1108	999.553	1535.1
313.15 K, m1 = 0.1312	1000.87	1536.2
313.15 K, m1 = 0.1499	1002.06	1537.3
318.15 K, m1 = 0.05008	993.55	–
318.15 K, m1 = 0.0698	994.845	1540.2
318.15 K, m1 = 0.09118	996.24	1541.4
318.15 K, m1 = 0.1108	–	1542.4
318.15 K, m1 = 0.1312	998.817	–
318.15 K, m1 = 0.1499	1000	1544.6
323.15 K, m1 = 0.05008	991.349	1545.3
323.15 K, m1 = 0.0698	992.639	1546.3
323.15 K, m1 = 0.09118	994.028	1547.4
323.15 K, m1 = 0.1108	995.295	1548.5
323.15 K, m1 = 0.1312	996.6	1549.5
323.15 K, m1 = 0.1499	997.788	1550.5

CCC[NH3+].O=C[O-] [propylammonium formate] + O
Conditions	mass density, m1 = 0.1 [kg/m3]	mass density, m1 = 0.2 [kg/m3]	mass density, m1 = 0.3 [kg/m3]	mass density, m1 = 0.4 [kg/m3]	speed of sound, m1 = 0.1 [m/s]	speed of sound, m1 = 0.2 [m/s]	speed of sound, m1 = 0.3 [m/s]	speed of sound, m1 = 0.4 [m/s]
293.15 K	999.222	1000.07	1000.91	1001.81	1492.2	1500.4	1508.2	1516.9
298.15 K	997.851	998.673	999.689	1000.56	1505.7	1513.4	1520.8	1528.9
303.15 K	996.637	997.448	998.238	999.087	1517.5	1524.9	1531.8	1539.4
308.15 K	994.884	995.676	996.581	997.41	1527.8	1534.7	1541.3	1548.4
313.15 K	993.191	993.97	994.725	995.542	1536.4	1543	1549.3	1555.9
318.15 K	990.986	991.749	992.694	993.502	1543.6	1549.9	1555.9	1562
323.15 K	988.793	989.611	990.498	991.295	1550.5	1555.4	1561.1	1566.9

O [water] + CCC[NH3+].O=C[O-]
m2 = 0
Conditions	mass density [kg/m3]	speed of sound [m/s]
313.15 K	–	1528.9
318.15 K	–	1536.6
323.15 K	988.031	–

O [water] + O=C[C@H](O)[C@@H](O)[C@H](O)[C@H](O)CO
m2 = 0
Conditions	mass density [kg/m3]	speed of sound [m/s]
313.15 K	–	1528.9
318.15 K	–	1536.6
323.15 K	988.031	–
